In experiment [1] the test system is B16. Kind of experiment: Inhibitory concentration against B16 murine melanoma cell line. The settings on record: Mus musculus.
For experiment [2], the system named is A-431. Kind of experiment: cells. The settings on record: Homo sapiens.
Description: Inhibitory concentration required against A 431 human epidermoid carcinoma cell line
Experiment [3] deals with HCT-116. Kind of experiment: cells. The settings on record: Homo sapiens.
Description: Inhibitory concentration against HCT 116 human colon cancer cell line
In experiment [4] the test system is ACHN. Nature of the experiment: Inhibitory concentration required against ACHN renal cancer cell line. The settings on record: Homo sapiens.
Experiment [5] has as its system DLD-1. Kind of experiment: Inhibitory concentration required against DLD-1 colon cancer cell line. To be noted: Homo sapiens.
Experiment [6] has as its system HCT-15. Nature of the experiment: Inhibitory concentration required against HCT 15 colon cancer cell line. The settings on record: Homo sapiens.
For experiment [7], the system named is HT-29. Kind of experiment: Inhibitory concentration required against HT 29 colon cancer cell line. To be noted: Homo sapiens.
Experiment [8] has as its system HCC 2998. Nature of the experiment: Inhibitory concentration required against HCC2998 colon cancer cell line. The settings on record: Homo sapiens.
The subject of experiment [9] is MCF7. Kind of experiment: Inhibitory concentration required against MCF-7 breast cancer cell line. To be noted: Homo sapiens. The format is functional, cell-based.
For experiment [10], the system named is NCI-H23. Nature of the experiment: Inhibitory concentration required against NCI-H23 lung cancer cell line. To be noted: Homo sapiens.
The test system of experiment [11] is PC-3. Nature of the experiment: Inhibitory concentration required against PC-3 prostate cancer cell line. The settings on record: Homo sapiens.
Experiment [12] has as its system SNB-19. Nature of the experiment: Inhibitory concentration required against SNB19 CNS cancer cell line. The format is functional, cell-based. The settings on record: Homo sapiens.
Experiment [13] has as its system SW-620. Nature of the experiment: Inhibitory concentration required against SW620 colon cancer cell line. The settings on record: Homo sapiens.
The test system of experiment [14] is UACC-62. Nature of the experiment: Inhibitory concentration required against UACC62 melanoma cell line. To be noted: Homo sapiens.
For experiment [15], the system named is LOX IMVI. Kind of experiment: Inhibitory concentration required against LOX-IMVI melanoma cell line. To be noted: Homo sapiens.
In experiment [16] the test system is A549. Nature of the experiment: cells. To be noted: Homo sapiens.
Description: Inhibitory concentration required against A 549 lung cancer cell line
Experiment [17] relates to MDA-MB-231. Kind of experiment: cells. The settings on record: Homo sapiens.
Description: Inhibitory concentration required against MDA-MB-231 breast cancer cell line
Experiment [18] has as its system COLO 205. Nature of the experiment: cells. To be noted: Homo sapiens.
Description: Inhibitory concentration required against COLO 205 colon cancer cell line

Values after ≈ are worked out from the molar mass of the structure shown.

Usually IC50 stands for the concentration that gives 50% inhibition. High values mean weaker potency, low ones greater potency. For `COC(=O)/C=C/c1ccc(OC)c(O)c1`, the figures for the IC50 in experiment [1], in experiment [2] and in experiment [3] were 25.9 µg/mL (≈ 124 µM), above 30 µg/mL and 27.5 µg/mL (≈ 132 µM), respectively.
With `COC(=O)/C=C/c1cc(O)c2c(c1O)C(=O)c1ccccc1C2=O`, the IC50 amounted to 0.42 µg/mL (≈ 1.3 µM) in [4]; 0.18 µg/mL (≈ 0.555 µM) in experiment [1]; 0.89 µg/mL (≈ 2.74 µM) in experiment [5]; 0.66 µg/mL (≈ 2.04 µM) in [6]; 0.55 µg/mL (≈ 1.7 µM) in experiment [7]; 0.95 µg/mL (≈ 2.93 µM) in experiment [8]. Further, the IC50 in experiment [9] was determined as 0.46 µg/mL (≈ 1.42 µM); in experiment [10], 0.39 µg/mL (≈ 1.2 µM); in [11], 2.72 µg/mL (≈ 8.39 µM); in experiment [12] it was 0.69 µg/mL (≈ 2.13 µM); in [13], 0.45 µg/mL (≈ 1.39 µM); in experiment [14], 0.11 µg/mL (≈ 0.339 µM). For the same compound, the IC50 was determined as 0.09 µg/mL (≈ 0.278 µM) in [15]; 1.13 µg/mL (≈ 3.48 µM) in experiment [16]; 0.87 µg/mL (≈ 2.68 µM) in [2]; 0.65 µg/mL (≈ 2 µM) in [3]; 0.74 µg/mL (≈ 2.28 µM) in experiment [17]; 0.73 µg/mL (≈ 2.25 µM) in experiment [18].
Take `COC(=O)/C=C/c1ccc2c(c1)OCO2`: the IC50 in [1], in experiment [2] and in experiment [3] was above 30 µg/mL in each case.
For the compound `COC(=O)CCc1cc(O)ccc1O`, the IC50 was found to be 4.43 µg/mL (≈ 22.6 µM) in experiment [1], 5 µg/mL (≈ 25.5 µM) in experiment [2] and 4.59 µg/mL (≈ 23.4 µM) in experiment [3].
For `COC(=O)/C=C/c1cc(O)ccc1O`, the concentration for half-maximal inhibition (IC50) stood at 0.73 µg/mL (≈ 3.76 µM) in [4]; 0.12 µg/mL (≈ 0.618 µM) in [1]; 0.68 µg/mL (≈ 3.5 µM) in experiment [5]; 0.27 µg/mL (≈ 1.39 µM) in experiment [6]; 1.1 µg/mL (≈ 5.66 µM) in [7]; 5.22 µg/mL (≈ 26.9 µM) in experiment [8]. Also, the IC50 in experiment [9] turned out to be 0.37 µg/mL (≈ 1.91 µM); in [10], 0.93 µg/mL (≈ 4.79 µM); in experiment [11] it was 0.42 µg/mL (≈ 2.16 µM); in experiment [12] it was 2.59 µg/mL (≈ 13.3 µM); in experiment [13] it was 0.39 µg/mL (≈ 2.01 µM); in experiment [14] it was 0.56 µg/mL (≈ 2.88 µM). Further, the IC50 worked out at 0.28 µg/mL (≈ 1.44 µM) in experiment [15]; 7.81 µg/mL (≈ 40.2 µM) in [16]; 0.15 µg/mL (≈ 0.772 µM) in [2]; 0.17 µg/mL (≈ 0.875 µM) in [3]; 0.82 µg/mL (≈ 4.22 µM) in experiment [17]; 0.97 µg/mL (≈ 5 µM) in experiment [18].
As to `CCCOC(=O)/C=C/c1ccc(O)c(O)c1`, the half-maximal inhibitory concentration (IC50) was 2.46 µg/mL (≈ 11.1 µM) in [1], 1.89 µg/mL (≈ 8.5 µM) in experiment [2] and 2.12 µg/mL (≈ 9.54 µM) in experiment [3].
On to `CCOC(=O)/C=C/c1cc(OC)c2c(c1OC)C(=O)c1ccccc1C2=O`, for which the IC50 in experiment [1], in [2] and in experiment [3] was above 30 µg/mL throughout.
As for `CCOC(=O)/C=C/c1cc(O)c2c(c1O)C(=O)c1ccccc1C2=O`, the IC50 in experiment [1] was 0.32 µg/mL (≈ 0.946 µM); in experiment [2], 0.91 µg/mL (≈ 2.69 µM); in experiment [3], 0.71 µg/mL (≈ 2.1 µM).
As to `COC(=O)/C=C/c1ccc(OC)c(OC)c1`, the 50% inhibitory concentration (IC50) in experiment [1], in experiment [2] and in [3] was above 30 µg/mL in each case.
Turning to `O=C(/C=C/c1ccc(O)c(O)c1)Nc1ccccc1`, the half-inhibitory concentration (IC50) came to 4.23 µg/mL (≈ 16.6 µM) in experiment [1], 5 µg/mL (≈ 19.6 µM) in experiment [2] and 4.26 µg/mL (≈ 16.7 µM) in [3].
Consider `COC(=O)/C=C\c1cc(O)ccc1O`, for which the IC50 in experiment [1] is 30.1 µg/mL (≈ 155 µM); in [2], above 30 µg/mL; in experiment [3], above 30 µg/mL.
In the case of `COC(=O)/C=C/c1cc(OC)c2c(c1OC)C(=O)c1ccccc1C2=O`, the IC50 in experiment [1], in experiment [2] and in experiment [3] was above 30 µg/mL in each case.
As for `COC(=O)/C=C/c1cc(OC)ccc1OC`, the IC50 in experiment [1], in experiment [2] and in experiment [3] was above 30 µg/mL each time.
Turning to `O=C/C=C/c1ccc(O)c(O)c1` [CAFFEOYL ALDEHYDE], the 50% inhibitory concentration (IC50) in experiment [1], in [2] and in experiment [3] was above 30 µg/mL in each case.
Compound `COc1cccc2c1C(=O)c1c(O)c3c(c(O)c1C2=O)C[C@@](O)(C(=O)CO)C[C@@H]3O[C@H]1C[C@H](N)[C@H](O)[C@H](C)O1` [DOXORUBICIN] had an IC50 in experiment [12] of 0.29 µg/mL (≈ 0.534 µM).
As to `CCOC(=O)/C=C/c1ccc(O)c(O)c1` [ETHYL CAFFEATE], the IC50 in experiment [1] came out at 1.75 µg/mL (≈ 8.4 µM); in experiment [2] it was 1.81 µg/mL (≈ 8.69 µM); in [3] it was 1.99 µg/mL (≈ 9.56 µM).
For `COC(=O)/C=C/c1ccc(O)c(O)c1` [METHYLCAFFEATE] the same measures were 2.96 µg/mL (≈ 15.2 µM), 1.79 µg/mL (≈ 9.22 µM) and 3.01 µg/mL (≈ 15.5 µM).
On to `O=C1c2ccccc2C(=O)c2c(O)ccc(O)c21` [QUINIZARIN], for which the half-inhibitory concentration (IC50) in experiment [1], in experiment [2] and in [3] was above 30 µg/mL in each case.
